According to ChEMBL document CHEMBL3044931, “Synthesis and Antimuscarinic Activity of Derivatives of 2-Substituted-1,3-Dioxolanes” (Med Chem Res, 2005):

Tests used:
[1] = target: T1, Muscarinic receptor 2 (Cavia porcellus) (UniProt Q8VH27); test: Binding affinity to Cavia porcellus (guinea pig) left atria M2 receptor after 2 hr
T1 sequence (whole entry): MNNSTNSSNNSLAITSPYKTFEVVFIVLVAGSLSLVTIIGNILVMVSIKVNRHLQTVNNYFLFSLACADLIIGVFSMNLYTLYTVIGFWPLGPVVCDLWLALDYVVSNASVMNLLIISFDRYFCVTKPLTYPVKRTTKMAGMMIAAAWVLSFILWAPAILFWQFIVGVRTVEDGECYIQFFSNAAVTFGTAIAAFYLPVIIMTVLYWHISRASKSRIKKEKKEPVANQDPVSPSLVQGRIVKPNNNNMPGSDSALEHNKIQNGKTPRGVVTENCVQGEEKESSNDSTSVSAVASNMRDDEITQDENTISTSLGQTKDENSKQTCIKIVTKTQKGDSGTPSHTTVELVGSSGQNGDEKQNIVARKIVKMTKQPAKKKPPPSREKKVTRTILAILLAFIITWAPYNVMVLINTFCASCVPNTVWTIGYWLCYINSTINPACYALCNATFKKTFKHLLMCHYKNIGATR

[2] = Selectivity ratio of pKb for rabbit vas deferens M1 receptor to pKb for guinea pig left atria M2 receptor
[3] = species: Oryctolagus cuniculus; test: Binding affinity to Oryctolagus cuniculus (rabbit) vas deferens M1 receptor after 1 hr
[4] = species: Cavia porcellus; test: Selectivity ratio of pKb for Cavia porcellus (guinea pig) ileum M3 receptor to pKb for Cavia porcellus (guinea pig) left atria M2 receptor; format: tissue-based; details: Atrium/Ileum
[5] = target: Muscarinic acetylcholine receptor M3 (Cavia porcellus) (UniProt Q8VH26); test: Binding affinity to Cavia porcellus (guinea pig) ileum M3 receptor after 30 min; format: tissue-based
Sequence of Muscarinic acetylcholine receptor M3 (Cavia porcellus) (Q8VH26 1-587): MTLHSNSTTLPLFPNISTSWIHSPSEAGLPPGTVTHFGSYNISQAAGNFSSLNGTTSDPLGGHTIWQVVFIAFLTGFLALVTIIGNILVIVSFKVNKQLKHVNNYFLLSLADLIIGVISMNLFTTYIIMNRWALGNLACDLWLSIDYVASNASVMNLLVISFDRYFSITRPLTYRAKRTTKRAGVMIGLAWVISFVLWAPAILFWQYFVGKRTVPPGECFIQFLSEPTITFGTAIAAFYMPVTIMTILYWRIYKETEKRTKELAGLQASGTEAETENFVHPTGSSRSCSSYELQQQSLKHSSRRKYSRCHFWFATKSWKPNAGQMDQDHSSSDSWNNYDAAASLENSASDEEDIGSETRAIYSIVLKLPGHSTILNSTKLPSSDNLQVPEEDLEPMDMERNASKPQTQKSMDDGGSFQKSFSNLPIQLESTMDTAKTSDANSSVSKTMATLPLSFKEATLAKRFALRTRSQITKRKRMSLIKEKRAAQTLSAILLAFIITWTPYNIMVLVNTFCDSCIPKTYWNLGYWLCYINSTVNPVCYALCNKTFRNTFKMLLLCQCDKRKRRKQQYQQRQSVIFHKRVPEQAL

[6] = Selectivity ratio of pKb for rabbit vas deferens M1 receptor to pKb for guinea pig ileum M3 receptor; format: tissue-based
[7] = Antagonist activity at Oryctolagus cuniculus (rabbit) vas deferens M1 receptor after 1 hr; details: read-out: pA2 (converted)

C[C@@H]1OC(c2ccccc2)(c2ccccc2)O[C@@H]1CN(C)C (relative stereo) showed a pKb [1] of 6.48, a Ratio pKb [2] of 0.7 and a pKb [3] of 6.35. For the same molecule, the Ratio pKb [4] was 0.9, the pKb [5] was 6.44 and the Ratio pKb [6] was 0.8.

CN(C)[C@H]1CO[C@H](C(c2ccccc2)c2ccccc2)OC1 showed a Kb [7] of 389 nM.

In the case of CN(C)C[C@@H]1CO[C@@H](C(c2ccccc2)c2ccccc2)O1, the pKb [1] is reported as 6.56, the Ratio pKb [2] is reported as 2 and the pKb [3] is reported as 6.9. For the same molecule, the Ratio pKb [4] was 1, the pKb [5] was 6.67 and the Ratio pKb [6] was 2.

With C[C@H]1OC(c2ccccc2)(c2ccccc2)O[C@@H]1CN(C)C (relative stereo) the pKb [1] was 6.71, the Ratio pKb [2] was 1 and the pKb [3] was 6.87. The Ratio pKb [4] was 1, the pKb [5] was 6.71 and the Ratio pKb [6] was 1.

With CN(C)CC1COC(c2ccccc2)(c2ccccc2)O1 (configuration not stated) the pKb [1] was 7.11, the Ratio pKb [2] was 1 and the pKb [3] was 7.15. For the same molecule, the Ratio pKb [4] was 0.4, the pKb [5] was 6.72 and the Ratio pKb [6] was 3.

For CN(C)[C@H]1CO[C@@H](C(c2ccccc2)c2ccccc2)OC1, the Kb [7] was 6.17 nM.

For CN(C)C[C@@H]1CO[C@H](C(c2ccccc2)c2ccccc2)O1 (relative stereo), the pKb [1] was 6.62, the Ratio pKb [2] was 5 and the pKb [3] was 7.31. The Ratio pKb [4] was 0.3, the pKb [5] was 6.07 and the Ratio pKb [6] was 17.
